Measured values reported in ChEMBL document CHEMBL1240509, “Modulators of the hedgehog signaling pathway” (Bioorg Med Chem, 2010).

Experiments:
[1] = Antagonist activity at hedgehog receptor; type: functional
[2] = Agonist activity at hedgehog receptor; type: functional
[3] = Inhibition of hedgehog receptor mediated Ptch1 transcription
[4] = Inhibition of hedgehog receptor mediated Gli transcription

Row | SMILES | IC50 [1] | further results
1 | CCC(C)n1ncn(-c2ccc(N3CCN(c4ccc(OCC5COC(Cn6cncn6)(c6ccc(Cl)cc6Cl)O5)cc4)CC3)cc2)c1=O (stereo not given) [ITRACONAZOLE] | 800 nM | 
2 | C[C@@]12C[C@H]3OC(=O)[C@@H]1CO[C@]14O[C@]5([C@H]2C1=O)[C@@](O)(CC[C@H]1[C@H]4C[C@H]2O[C@]24CC=CC(=O)[C@]14C)C(=O)O[C@@]35C [PHYSALIN F] | 660 nM | 
3 | O=C(C[C@@H]1C/C=C/CCC(=O)O[C@H](c2ccccc2)CNC1=O)NCc1ccc(Cl)cc1 [ROBOTNIKININ] | 3100 nM | 
4 | CC1=C2C[C@H]3[C@@H](CC[C@@H]4CNC(=O)CC[C@@]43C)[C@@H]2CC[C@@]2(C1)O[C@@H]1C[C@H](C)CN[C@@H]1[C@H]2C | 30 nM | 
5 | CN(C)c1ccccc1CN1CCCN(Cc2ccccc2N(C)C)C1c1ccncc1 | 5000 nM | 
6 | CC(C)[C@@H](O)CC[C@@H](C)[C@H]1CC[C@H]2[C@@H]3CC=C4C[C@@H](O)CC[C@]4(C)[C@H]3CC[C@]12C |  | EC50 [2]: 3000 nM
7 | CC1=C2C[C@H]3[C@@H](CC=C4C[C@@H](O)CC[C@@]43C)[C@@H]2CC[C@]12O[C@@H]1C[C@H](C)CN[C@H]1[C@H]2C [CYCLOPAMINE] |  | EC50 [3]: 300 nM; EC50 ([4]; read-out: EC50): 300 nM
8 | CC1=C2C[C@H]3[C@@H](CC[C@@H]4Cc5n[nH]cc5C[C@@]43C)[C@@H]2CC[C@@]2(C1)O[C@@H]1C[C@H](C)CN[C@@H]1[C@H]2C | 10 nM | 
9 | COCCOC(=O)C1=C(C)NC2=C(C(=O)CC(c3ccccc3OC)C2)C1c1cccc(O)c1 (stereo not given) | 1500 nM | 
10 | c1ccc2c(Oc3nc(Nc4ccc(N5CCOCC5)cc4)c4ncn(C5CCCCC5)c4n3)cccc2c1 [PURMORPHAMINE] |  | EC50 [2]: 1000 nM
11 | Cc1c([C@H](C)[C@@H]2NC[C@@H](C)C[C@H]2O)ccc2c1C[C@H]1[C@H]2CC=C2C[C@@H](O)CC[C@@]21C [VERATRAMINE] |  | EC50 [4]: Not Active
12 | CC1=C2C[C@H]3[C@@H](CC=C4CC(=O)CC[C@@]43C)[C@@H]2CC[C@]12O[C@@H]1C[C@H](C)CN(CCNC(=O)CCCCCNC(=O)CCc3ccccc3)[C@H]1[C@H]2C | 20 nM | 
13 | CC1=C2C[C@H]3[C@@H](CCC4=CC(=O)CC[C@@]43C)[C@@H]2CC[C@@]2(C1)O[C@@H]1C[C@H](C)CNC1[C@H]2C (single isomer, unassigned) | 200 nM | 
14 | C[C@H](CCCC(C)(C)O)[C@H]1CC[C@H]2[C@@H]3CC=C4C[C@@H](O)CC[C@]4(C)[C@H]3CC[C@]12C |  | EC50 [2]: 1000 nM
15 | CCOc1cc(C(=O)Nc2ccc(Cl)c(-c3nc4ccccc4[nH]3)c2)cc(OCC)c1OCC | 30 nM | 
16 | CC(C)CCC[C@](C)(O)[C@H]1CC[C@H]2[C@@H]3CC=C4C[C@@H](O)CC[C@]4(C)[C@H]3CC[C@@]21C |  | EC50 [2]: 100 nM
17 | CC1=C2C[C@H]3[C@@H](CC=C4C[C@@H](O[C@@H]5O[C@H](CO)[C@@H](O)[C@H](O)[C@H]5O)CC[C@@]43C)[C@@H]2CC[C@]12O[C@@H]1C[C@H](C)CN[C@H]1[C@H]2C [CYCLOPOSINE] |  | EC50 ([4]; read-out: EC50): > 700 nM
18 | CCCN[C@H]1CC[C@H](N(Cc2cccc(-c3ccncc3)c2)C(=O)c2sc3ccccc3c2Cl)CC1 | 20 nM | 
19 | c1cc(-c2sc(-c3ccncc3)c(-c3ccncc3)c2-c2ccncc2)ccn1 | 5000 nM | 
20 | CC(C)CC[C@H](O)[C@@H](C)[C@H]1CC[C@H]2[C@@H]3CC=C4C[C@@H](O)CC[C@]4(C)[C@H]3CC[C@]12C |  | EC50 [2]: 200 nM
21 | CC1=C2C(=O)[C@H]3[C@@H](CC=C4C[C@@H](O)CC[C@@]43C)[C@@H]2CC[C@]12O[C@@H]1C[C@H](C)CN[C@H]1[C@H]2C [JERVINE] |  | EC50 ([4]; read-out: EC50): 500 nM
22 | CS(=O)(=O)c1ccc(C(=O)Nc2ccc(Cl)c(-c3ccccn3)c2)c(Cl)c1 [VISMODEGIB] | 13 nM | 
23 | CN[C@H]1CC[C@H](N(Cc2cccc(-c3ccncc3)c2)C(=O)c2sc3ccccc3c2Cl)CC1 |  | EC50 [2]: 3000 nM
24 | CC1=C2C[C@H]3[C@@H](CC[C@@H]4C[C@H](NS(C)(=O)=O)CC[C@@]43C)[C@@H]2CC[C@@]2(C1)O[C@@H]1C[C@H](C)CN[C@@H]1[C@H]2C | 7 nM | 
